{
  "source": "patent US9546401B2",
  "about": "“Assays and methods for selecting a treatment regimen for a subject with depression” (The General Hospital Corporation, priority 2011, dated 2017)",
  "tested_on": "MDD patients carrying the indicated biomarkers",
  "details": "for HAMD-17 change, Effect / HAMD-28 change, Effect: + SSRI",
  "description": "Folate levels are classified as either low (<=2.5 ng/ml) or normal; and homocysteine levels as either normal or elevated (>=[…]). The presence or absence of at least one […] allele for the MTHFR gene are entered as a dichotomous variable (present or absent). […] Using folate as an example predicator, the presence or absence of a low serum-folate level along with treatment assignment can be entered in a 2×2, factorial ANOVA, using depression improvement scores (baseline minus endpoint HAM-D-17 scores) as the dependant variable. […] Similar analyses (i.e. separate 2×2 ANOVA's) can be performed substituting the presence of low folate levels for the presence of other predictors as described herein. Similarly, the effect of other predictors can be indicated by the interaction term representing the potential modulating influence of those variables.\nThe efficacy effect is determined by measuring the mean change in the HAMD-17 score and HAMD-28 score by the end of Phase I and Phase II, as compared to the baseline.",
  "key": {"[1]": {"details": "A + B: BMI > 30 & LOW SAM/SAH RATIO, N = 13"}, "[2]": {"details": "A + C: BMI > 30 & HIGH 4-HNE, N = 12"}, "[3]": {"details": "A + D: BMI > 30 & MTHFR 677 CT/TT, N = 9"}, "[4]": {"details": "A + E + F: BMI > 30 & MTR 2756 AG/GG & MTRR 66 AG/GG, N = 4"}, "[5]": {"details": "A + E: BMI > 30 & MTR 2756 AG/GG, N = 5"}, "[6]": {"details": "B + C: LOW SAM/SAH RATIO & HIGH 4-HNE, N = 11"}, "[7]": {"details": "B + E + F: LOW SAM/SAH RATIO & MTR 2756 AG/GG & MTRR 66 AG/GG, N = 5"}, "[8]": {"details": "B + E: LOW SAM/SAH RATIO & MTR 2756 AG/GG, N = 6"}, "[9]": {"details": "B + F: LOW SAM/SAH RATIO & MTRR 66 AG/GG, N = 11"}, "[10]": {"details": "C + D: HIGH 4-HNE & MTHFR 677 CT/TT, N = 8"}, "[11]": {"details": "C + E + F: HIGH 4-HNE & MTR 2756 AG/GG & MTRR 66 AG/GG, N = 4"}, "[12]": {"details": "C + E: HIGH 4-HNE & MTR 2756 AG/GG, N = 9"}, "[13]": {"details": "C + F: HIGH 4-HNE & MTRR 66 AG/GG, N = 15"}, "[14]": {"details": "D + E: MTHFR 677 CT/TT & MTR 2756 AG/GG, N = 4"}, "[15]": {"details": "E + F: MTR 2756 AG/GG & MTRR 66 AG/GG, N = 8"}, "[16]": {"details": "MTHFR 677 CC and MTR 2756 AA, Phase I"}, "[17]": {"details": "MTHFR 677 CC and MTR 2756 AA, Phase II"}, "[18]": {"details": "MTHFR 677 CC and MTR 2756 AA, Pooled phases"}, "[19]": {"details": "MTHFR 677 CT or TT and MTR 2756 AG or GG, Phase I"}, "[20]": {"details": "MTHFR 677 CT or TT and MTR 2756 AG or GG, Phase II"}, "[21]": {"details": "MTHFR 677 CT or TT and MTR 2756 AG or GG, Pooled phases"}, "[22]": {"details": "MTR 2756 AA and MTRR 66 AA and BMI < 30 kg/m^2, Phase II"}, "[23]": {"details": "MTR 2756 AG or GG and MTRR 66 AG or GG and BMI >= 30 kg/m^2, Phase I"}, "[24]": {"details": "MTR 2756 AG or GG and MTRR 66 AG or GG and BMI >= 30 kg/m^2, Phase II"}, "[25]": {"details": "MTR 2756 AG or GG and MTRR 66 AG or GG and BMI >= 30 kg/m^2, Pooled phases"}},
  "note": "Read-outs that look alike come from different tables or passages of the source.",
  "data": [
    {"molecule": "CN1c2c(nc(N)[nH]c2=O)NC[C@@H]1CNc1ccc(C(=O)N[C@@H](CCC(=O)O)C(=O)O)cc1", "note": "[6(S)-5-MTHF, 6(S)-5-methyltetrahydrofolate]", "values": [
      {"measurement": "Pooled Effect Size HAMD-17", "setting": "[1]", "result": "−7.302"},
      {"measurement": "Pooled Effect Size HAMD-28", "setting": "[1]", "result": "−7.572"},
      {"measurement": "Pooled Effect Size HAMD-17", "setting": "[2]", "result": "−5.420"},
      {"measurement": "Pooled Effect Size HAMD-28", "setting": "[2]", "result": "−5.996"},
      {"measurement": "Pooled Effect Size HAMD-17", "setting": "[3]", "result": "−8.090"},
      {"measurement": "Pooled Effect Size HAMD-28", "setting": "[3]", "result": "−9.884"},
      {"measurement": "Pooled Effect Size HAMD-17", "setting": "[4]", "result": "−10.972"},
      {"measurement": "Pooled Effect Size HAMD-28", "setting": "[4]", "result": "−15.347"},
      {"measurement": "Pooled Effect Size HAMD-17", "setting": "[5]", "result": "−11.714"},
      {"measurement": "Pooled Effect Size HAMD-28", "setting": "[5]", "result": "−14.433"},
      {"measurement": "Pooled Effect Size HAMD-17", "setting": "A: BMI > 30, N = 21", "result": "−4.600"},
      {"measurement": "Pooled Effect Size HAMD-28", "setting": "A: BMI > 30, N = 21", "result": "−4.660"},
      {"measurement": "Pooled Effect Size HAMD-17", "setting": "[6]", "result": "−9.898"},
      {"measurement": "Pooled Effect Size HAMD-28", "setting": "[6]", "result": 9.500},
      {"measurement": "Pooled Effect Size HAMD-17", "setting": "[7]", "result": "−7.640"},
      {"measurement": "Pooled Effect Size HAMD-28", "setting": "[7]", "result": "−11.620"},
      {"measurement": "Pooled Effect Size HAMD-17", "setting": "[8]", "result": "−5.583"},
      {"measurement": "Pooled Effect Size HAMD-28", "setting": "[8]", "result": "−11.683"},
      {"measurement": "Pooled Effect Size HAMD-17", "setting": "[9]", "result": "−5.879"},
      {"measurement": "Pooled Effect Size HAMD-28", "setting": "[9]", "result": "−6.879"},
      {"measurement": "Pooled Effect Size HAMD-17", "setting": "B: LOW SAM/SAH RATIO, N = 18", "result": "−3.622"},
      {"measurement": "Pooled Effect Size HAMD-28", "setting": "B: LOW SAM/SAH RATIO, N = 18", "result": "−4.572"},
      {"measurement": "Pooled Effect Size HAMD-17", "setting": "[10]", "result": "−9.446"},
      {"measurement": "Pooled Effect Size HAMD-28", "setting": "[10]", "result": "−9.865"},
      {"measurement": "Pooled Effect Size HAMD-17", "setting": "[11]", "result": "−7.942"},
      {"measurement": "Pooled Effect Size HAMD-28", "setting": "[11]", "result": "−10.241"},
      {"measurement": "Pooled Effect Size HAMD-17", "setting": "[12]", "result": "−8.072"},
      {"measurement": "Pooled Effect Size HAMD-28", "setting": "[12]", "result": "−9.508"},
      {"measurement": "Pooled Effect Size HAMD-17", "setting": "[13]", "result": "−4.850"},
      {"measurement": "Pooled Effect Size HAMD-28", "setting": "[13]", "result": "−6.582"},
      {"measurement": "Pooled Effect Size HAMD-17", "setting": "C: HIGH 4-HNE, N = 21", "result": "−4.175"},
      {"measurement": "Pooled Effect Size HAMD-28", "setting": "C: HIGH 4-HNE, N = 21", "result": 4.554},
      {"measurement": "Pooled Effect Size HAMD-17", "setting": "[14]", "result": "−18.710"},
      {"measurement": "Pooled Effect Size HAMD-28", "setting": "[14]", "result": "−23.290"},
      {"measurement": "Pooled Effect Size HAMD-17", "setting": "[15]", "result": "−6.976"},
      {"measurement": "Pooled Effect Size HAMD-28", "setting": "[15]", "result": "−9.348"},
      {"measurement": "Pooled Effect Size HAMD-17", "setting": "E: MTR 2756 AG/GG, N = 11", "result": "−5.677"},
      {"measurement": "Pooled Effect Size HAMD-28", "setting": "E: MTR 2756 AG/GG, N = 11", "result": "−8.243"},
      {"measurement": "effect in carriers of both variants relative to the sum of the individual biomarker effects", "setting": "HAMD-28 mean change, MTHFR T + MTR G", "result": "at least 2 fold"},
      {"measurement": "HAMD-17 change, Effect", "setting": "[16]", "result": "−0.700"},
      {"measurement": "HAMD-28 change, Effect", "setting": "[16]", "result": "−0.192"},
      {"measurement": "HAMD-17 change, Effect", "setting": "[17]", "result": "−0.571"},
      {"measurement": "HAMD-28 change, Effect", "setting": "[17]", "result": 0.048},
      {"measurement": "HAMD-17 change, Effect", "setting": "[18]", "result": 0.722},
      {"measurement": "HAMD-28 change, Effect", "setting": "[18]", "result": 0.711},
      {"measurement": "HAMD-17 change, Effect", "setting": "[19]", "result": "−13.47"},
      {"measurement": "HAMD-28 change, Effect", "setting": "[19]", "result": "−18.00"},
      {"measurement": "HAMD-17 change, Effect", "setting": "[20]", "result": "−10.33"},
      {"measurement": "HAMD-28 change, Effect", "setting": "[20]", "result": "−13.00"},
      {"measurement": "HAMD-17 change, Effect", "setting": "[21]", "result": "−18.71"},
      {"measurement": "HAMD-28 change, Effect", "setting": "[21]", "result": "−23.29"},
      {"measurement": "HAMD-17 change, Effect", "setting": "[22]", "result": "−4.333"},
      {"measurement": "HAMD-28 change, Effect", "setting": "[22]", "result": "−4.667"},
      {"measurement": "HAMD-17 change, Effect", "setting": "[23]", "result": "−13.667"},
      {"measurement": "HAMD-28 change, Effect", "setting": "[23]", "result": "−18.833"},
      {"measurement": "HAMD-17 change, Effect", "setting": "[24]", "result": "−11.000"},
      {"measurement": "HAMD-28 change, Effect", "setting": "[24]", "result": "−12.000"},
      {"measurement": "HAMD-17 change, Effect", "setting": "[25]", "result": "−10.972"},
      {"measurement": "HAMD-28 change, Effect", "setting": "[25]", "result": "−15.347"},
      {"measurement": "Pooled Effect Size HAMD-17", "setting": "OVERALL, N = 73", "result": "−2.264"},
      {"measurement": "Pooled Effect Size HAMD-28", "setting": "OVERALL, N = 73", "result": "−2.738"},
      {"measurement": "Effect on change in HAMD-17 score", "setting": "Phase I, 25 =< BMI < 30 kg/m^2", "result": 2.600},
      {"measurement": "Effect on change in HAMD-28 score", "setting": "Phase I, 25 =< BMI < 30 kg/m^2", "result": 2.602},
      {"measurement": "Effect on change in HAMD-17 score", "setting": "Phase I, BMI < 25", "result": 1.576},
      {"measurement": "Effect on change in HAMD-28 score", "setting": "Phase I, BMI < 25", "result": 0.909},
      {"measurement": "Effect on change in HAMD-17 score", "setting": "Phase I, BMI < 30 kg/m^2 and HNE-His < median", "result": 3.771}
    ]}
  ]
}
